From article PMC3532132, “High-resolution structures of AidH complexes provide insights into a novel catalytic mechanism for N-acyl homoserine lactonase” (Acta Crystallographica Section D: Biological Crystallography, 2012)

Molecular target: T1, AidH (Ochrobactrum sp. T63, UniProt D2J2T6)
T1 construct: full length (251 residues), pET22b(+), C-terminal His tag, E. coli BL21(DE3); monomer in solution; alpha/beta-hydrolase, metal-independent
T1 sequence (D2J2T6 1-271): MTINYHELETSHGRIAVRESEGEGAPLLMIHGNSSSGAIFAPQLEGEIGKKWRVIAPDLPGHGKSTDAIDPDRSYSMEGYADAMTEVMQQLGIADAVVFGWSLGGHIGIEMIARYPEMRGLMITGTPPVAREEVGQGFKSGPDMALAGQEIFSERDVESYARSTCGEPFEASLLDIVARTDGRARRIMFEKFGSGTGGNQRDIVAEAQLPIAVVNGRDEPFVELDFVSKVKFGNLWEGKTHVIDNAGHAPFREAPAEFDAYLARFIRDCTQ
Experiment: X-ray crystal structure, […] A, soaked crystal
Type: binding
Settings: product of C4-HSL hydrolysis; active site, hydrogen bonds to Ser102, His248, Tyr160

CCCC(=O)N[C@@H](CCO)C(=O)O [C4-HS, N-butanoyl homoserine] was tested, and the “X-ray crystal structure, 1.09 A, soaked crystal” value was “crystal structure of wild-type AidH complexed with the product C4-HS (AidH–C4-HS) was determined”.
